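Briefly, cells in 96-well plates were exposed to five compound concentrations for 48 h, and endpoints were estimated by linear interpolation. Here, GI50 denotes the concentration required for 50% inhibition of growth. TGI denotes the concentration required for complete inhibition of growth.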
Tests used:
Assay in all cases: growth of human tumour cells (NCI), 48 h
[1] = system: 786-0 renal
[2] = system: A498 renal
[3] = system: A549 NSCLC
[4] = system: ACHN renal
[5] = system: BT-549 breast
[6] = system: CAKI-1 renal
[7] = system: COLO 205 colon
[8] = system: DU-145 prostate
[9] = system: EKVX NSCLC
[10] = system: HCC-2998 colon
[11] = system: HCT-116 colon
[12] = system: HCT-15 colon
[13] = system: HL-60(TB) leukemia
[14] = system: HOP-62 NSCLC
[15] = system: HOP-92 NSCLC
[16] = system: HS 578T breast
[17] = system: HT29 colon
[18] = system: IGROV1 ovarian
[19] = system: K-562 leukemia
[20] = system: KM12 colon
[21] = system: LOX IMVI melanoma
[22] = system: M14 melanoma
[23] = system: MALME-3M melanoma
[24] = system: MCF7 breast
[25] = system: MDA-MB-231 breast
[26] = system: MDA-MB-435
[27] = system: MOLT-4 leukemia
[28] = system: NCI-H226 lung
[29] = system: NCI-H23 lung
[30] = system: NCI-H460 lung
[31] = system: NCI-H522 lung
[32] = system: NCI/ADR-RES ovarian
[33] = system: OVCAR-3 ovarian
[34] = system: OVCAR-4 ovarian
[35] = system: OVCAR-5 ovarian
[36] = system: OVCAR-8 ovarian
[37] = system: PC-3 prostate
[38] = system: RPMI-8226 leukemia
[39] = system: RXF 393 renal
[40] = system: SF-268 CNS
[41] = system: SF-295 CNS
[42] = system: SF-539 CNS
[43] = system: SK-MEL-2 melanoma
[44] = system: SK-MEL-28 melanoma
[45] = system: SK-MEL-5 melanoma
[46] = system: SK-OV-3 ovarian
[47] = system: SN12C renal
[48] = system: SNB-19 CNS
[49] = system: SNB-75 CNS
[50] = system: SR leukemia
[51] = system: SW-620 colon
[52] = system: T-47D breast
[53] = system: TK-10 renal
[54] = system: U251 CNS
[55] = system: UACC-257 melanoma
[56] = system: UACC-62 melanoma
[57] = system: UO-31 renal
[58] = system: CCRF-CEM leukemia

For Clc1ccc2c(c1)C(Br)c1cc(Cl)cc(Cl)c1-2 (configuration not stated), the GI50 [1] was > 100 µM, the TGI [1] was > 100 µM and the GI50 [2] was > 100 µM. The TGI [2] was > 100 µM, the GI50 [3] was > 100 µM and the TGI [3] was > 100 µM. The GI50 [4] was > 100 µM, the TGI [4] was > 100 µM and the GI50 [5] was 3.56 µM. The TGI [5] was 41.6 µM, the GI50 [6] was 56.4 µM and the TGI [6] was > 100 µM. For the same molecule, the GI50 [7] was > 100 µM, the TGI [7] was > 100 µM and the GI50 [8] was > 100 µM. The TGI [8] was > 100 µM, the GI50 [9] was 2.82 µM and the TGI [9] was > 100 µM. For the same molecule, the GI50 [10] was > 100 µM, the TGI [10] was > 100 µM and the GI50 [11] was 8.74 µM. The TGI [11] was > 100 µM, the GI50 [12] was 74.5 µM and the TGI [12] was > 100 µM. For the same molecule, the GI50 [13] was > 100 µM, the TGI [13] was > 100 µM and the GI50 [14] was > 100 µM. For the same molecule, the TGI [14] was > 100 µM, the GI50 [15] was 12.4 µM and the TGI [15] was > 100 µM. The GI50 [16] was > 100 µM, the TGI [16] was > 100 µM and the GI50 [17] was > 100 µM. The TGI [17] was > 100 µM, the GI50 [18] was 18.6 µM and the TGI [18] was > 100 µM. The GI50 [19] was 8.74 µM, the TGI [19] was > 100 µM and the GI50 [20] was > 100 µM. For the same molecule, the TGI [20] was > 100 µM, the GI50 [21] was 2.46 µM and the TGI [21] was > 100 µM. The GI50 [22] was 3.35 µM, the TGI [22] was 35.7 µM and the GI50 [23] was 3.49 µM. The TGI [23] was > 100 µM, the GI50 [24] was 20.5 µM and the TGI [24] was > 100 µM. The GI50 [25] was 30.8 µM, the TGI [25] was > 100 µM and the GI50 [26] was 5.19 µM. The TGI [26] was > 100 µM, the GI50 [27] was 10.8 µM and the TGI [27] was > 100 µM. It also gave a GI50 [28] of 2.75 µM, a TGI [28] of 34.8 µM and a GI50 [29] of 2.83 µM. The TGI [29] was 36.8 µM, the GI50 [30] was > 100 µM and the TGI [30] was > 100 µM. The GI50 [31] was 2.53 µM, the TGI [31] was > 100 µM and the GI50 [32] was 42.7 µM. For the same molecule, the TGI [32] was > 100 µM, the GI50 [33] was > 100 µM and the TGI [33] was > 100 µM. For the same molecule, the GI50 [34] was 71.5 µM, the TGI [34] was > 100 µM and the GI50 [35] was > 100 µM. The TGI [35] was > 100 µM, the GI50 [36] was 28.6 µM and the TGI [36] was > 100 µM. For the same molecule, the GI50 [37] was > 100 µM, the TGI [37] was > 100 µM and the GI50 [38] was 38.9 µM. For the same molecule, the TGI [38] was > 100 µM, the GI50 [39] was 27 µM and the TGI [39] was 86.6 µM. The GI50 [40] was 29.9 µM, the TGI [40] was > 100 µM and the GI50 [41] was > 100 µM. The TGI [41] was > 100 µM, the GI50 [42] was 82.5 µM and the TGI [42] was > 100 µM. The GI50 [43] was 33.8 µM, the TGI [43] was > 100 µM and the GI50 [44] was > 100 µM. For the same molecule, the TGI [44] was > 100 µM, the GI50 [45] was 6.81 µM and the TGI [45] was 72.3 µM. The GI50 [46] was > 100 µM, the TGI [46] was > 100 µM and the GI50 [47] was 3.84 µM. The TGI [47] was > 100 µM, the GI50 [48] was > 100 µM and the TGI [48] was > 100 µM. The GI50 [49] was 19 µM, the TGI [49] was > 100 µM and the GI50 [50] was 4.34 µM. The TGI [50] was > 100 µM, the GI50 [51] was 5.46 µM and the TGI [51] was > 100 µM. The GI50 [52] was > 100 µM, the TGI [52] was > 100 µM and the GI50 [53] was > 100 µM. For the same molecule, the TGI [53] was > 100 µM, the GI50 [54] was > 100 µM and the TGI [54] was > 100 µM. The GI50 [55] was > 100 µM, the TGI [55] was > 100 µM and the GI50 [56] was 39.9 µM. For the same molecule, the TGI [56] was > 100 µM, the GI50 [57] was 67.7 µM and the TGI [57] was > 100 µM.
With c1ccc([P+](c2ccccc2)(c2ccccc2)c2ccc3c4ccc([P+](c5ccccc5)(c5ccccc5)c5ccccc5)c5cccc(c6cccc2c63)c54)cc1 the GI50 [1] was 3.04 µM, the TGI [1] was 28.8 µM and the GI50 [2] was 0.889 µM. The TGI [2] was 6.79 µM, the GI50 [3] was 0.986 µM and the TGI [3] was > 100 µM. The GI50 [4] was 3.79 µM, the TGI [4] was > 100 µM and the GI50 [5] was 0.455 µM. For the same molecule, the TGI [5] was 2.69 µM, the GI50 [6] was 6.15 µM and the TGI [6] was > 100 µM. For the same molecule, the GI50 [58] was 2.13 µM, the TGI [58] was 33.3 µM and the GI50 [8] was 0.811 µM. It also gave a TGI [8] of 13.4 µM, a GI50 [9] of 1.69 µM and a TGI [9] of 35.2 µM. The GI50 [10] was 2.28 µM, the TGI [10] was 8.51 µM and the GI50 [11] was 1.54 µM. For the same molecule, the TGI [11] was 10.4 µM, the GI50 [12] was 5.89 µM and the TGI [12] was > 100 µM. For the same molecule, the GI50 [13] was 2.38 µM, the TGI [13] was 6.25 µM and the GI50 [14] was 0.931 µM. The TGI [14] was 25.8 µM, the GI50 [15] was 1.18 µM and the TGI [15] was 5.44 µM. It also gave a GI50 [16] of 0.574 µM, a TGI [16] of 5.49 µM and a GI50 [17] of 1.64 µM. It also gave a TGI [17] of 13.3 µM, a GI50 [18] of 1.41 µM and a TGI [18] of 7.47 µM. The GI50 [19] was 0.506 µM, the TGI [19] was > 100 µM and the GI50 [20] was 0.743 µM. For the same molecule, the TGI [20] was 3.1 µM, the GI50 [21] was 2.67 µM and the TGI [21] was 20.7 µM. The GI50 [22] was 1.39 µM, the TGI [22] was 7.48 µM and the GI50 [23] was 0.412 µM. The TGI [23] was 2.56 µM, the GI50 [24] was 1.25 µM and the TGI [24] was 14.2 µM. The GI50 [25] was 2.22 µM, the TGI [25] was 9.98 µM and the GI50 [26] was 0.799 µM. It also gave a TGI [26] of 4.21 µM, a GI50 [27] of 2.37 µM and a TGI [27] of 19.3 µM. For the same molecule, the GI50 [29] was 2.1 µM, the TGI [29] was 13.5 µM and the GI50 [30] was 0.692 µM. The TGI [30] was 3.94 µM, the GI50 [31] was 1.24 µM and the TGI [31] was 13.7 µM. For the same molecule, the GI50 [32] was 9.41 µM, the TGI [32] was > 100 µM and the GI50 [33] was 1.91 µM. For the same molecule, the TGI [33] was 11.9 µM, the GI50 [34] was 1.89 µM and the TGI [34] was 30.8 µM. The GI50 [35] was 2.82 µM, the TGI [35] was > 100 µM and the GI50 [36] was 1.32 µM. The TGI [36] was > 100 µM, the GI50 [37] was 1.65 µM and the TGI [37] was 14.3 µM. For the same molecule, the GI50 [38] was 0.647 µM, the TGI [38] was 4.16 µM and the GI50 [39] was 2.79 µM. The TGI [39] was 25.3 µM, the GI50 [40] was 0.995 µM and the TGI [40] was 20 µM. The GI50 [41] was 1.24 µM, the TGI [41] was 5.36 µM and the GI50 [42] was 0.477 µM. The TGI [42] was 2.32 µM, the GI50 [43] was 2.57 µM and the TGI [43] was 7.58 µM. For the same molecule, the GI50 [44] was 1.67 µM, the TGI [44] was 6.15 µM and the GI50 [47] was 1.09 µM. The TGI [47] was 13.7 µM, the GI50 [48] was 0.714 µM and the TGI [48] was 13.1 µM. For the same molecule, the GI50 [49] was 0.435 µM, the TGI [49] was 4.17 µM and the GI50 [50] was 1.1 µM. For the same molecule, the TGI [50] was > 100 µM, the GI50 [51] was 1.98 µM and the TGI [51] was 10.8 µM. The GI50 [52] was 0.621 µM, the TGI [52] was 24.6 µM and the GI50 [53] was 4.18 µM. For the same molecule, the TGI [53] was > 100 µM, the GI50 [54] was 0.445 µM and the TGI [54] was 17.9 µM. It also gave a GI50 [55] of 2.12 µM, a TGI [55] of 8.47 µM and a GI50 [56] of 1.47 µM. It also gave a TGI [56] of 4.64 µM, a GI50 [57] of 2.73 µM and a TGI [57] of 78.3 µM.

Reference: PubChem BioAssay (NCI)
